Data reported in patent US12319655B2, “RAF kinase inhibitors and methods of use thereof” (Deciphera Pharmaceuticals, LLC, priority 2021, dated 2025).
Where two headings read alike, the source gives them in different places.

What was measured:
[1] = target: B-Raf kinase (SEQ. ID NO: 2) (Homo sapiens (Human), UniProt P15056); assay: Biochemical Assay for B-Raf (1); settings: Table J
Procedure, shortened: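 IC50 derived by four-parameter sigmoidal fit of percent inhibition, normalised to uninhibited and reference-inhibitor controls, using reaction rates over 4–5 h. Coupled spectrophotometric readout (NADH loss at 340 nm, 6 h, 30° C.); 1 mM ATP, 30.1 nM MEK, 0.13 nM B-Raf, pH 7.5 Tris buffer, 1% DMSO.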

[2] = target: C-Raf kinase (SEQ. ID NO: 3) (Homo sapiens (Human), UniProt P04049, Y340D/Y341D); assay: Biochemical Assay for C-Raf (1); settings: Table J
Procedure, shortened: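 IC50 values come from a four-parameter fit of percent inhibition, using the reaction rate over 4–5 h of a 6 h continuous 340 nm read at 30 °C. The enzyme mix was C-Raf 0.43 nM, MEK substrate 30.1 nM and ATP 1 mM, in a PK/LDH NADH-coupled format in Tris pH 7.5 with 1% DMSO.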

Miapaca-2 cells = assay: MiaPaca-2 Cell Proliferation Assay (1); assay type: cell-based; settings: Homo sapiens, MIA PaCa-2, single agent, read-out: MiaPaca2 (1) IC50
Procedure, shortened: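 Resazurin was added after compound exposure and incubated 5-6 h, then fluorescence read at 540 nm excitation and 600 nm emission to give IC50.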

WM3928 cells = assay: WM3928 Cell Proliferation Assay (1); assay type: cell-based
Procedure, shortened: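 IC50 was derived from resazurin fluorescence (ex 540, em 600 nm) after a 6–7 h dye incubation. Before that, cells had 67–72 h of compound exposure at 37 °C, 5% CO2.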

[3] = assay version (1), read-out: BRAF (1) IC50
[4] = assay version (1), read-out: CRAF (1) IC50
[5] = biochemical assay (1), read-out: BRAF (1)
[6] = biochemical assay (1), read-out: CRAF (1)

Sequence of C-Raf kinase (SEQ. ID NO: 3) (P04049 307-648 Y340D/Y341D): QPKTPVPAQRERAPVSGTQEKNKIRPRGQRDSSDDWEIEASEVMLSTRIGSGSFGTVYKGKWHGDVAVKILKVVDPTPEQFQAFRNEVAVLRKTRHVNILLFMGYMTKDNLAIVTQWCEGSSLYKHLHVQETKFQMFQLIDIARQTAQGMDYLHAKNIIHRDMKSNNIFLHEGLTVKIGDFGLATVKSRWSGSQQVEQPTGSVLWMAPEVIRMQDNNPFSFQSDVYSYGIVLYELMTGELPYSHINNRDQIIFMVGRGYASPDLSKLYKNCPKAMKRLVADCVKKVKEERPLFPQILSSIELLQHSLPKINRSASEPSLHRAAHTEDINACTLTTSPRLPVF
Sequence of B-Raf kinase (SEQ. ID NO: 2) (P15056 416-766): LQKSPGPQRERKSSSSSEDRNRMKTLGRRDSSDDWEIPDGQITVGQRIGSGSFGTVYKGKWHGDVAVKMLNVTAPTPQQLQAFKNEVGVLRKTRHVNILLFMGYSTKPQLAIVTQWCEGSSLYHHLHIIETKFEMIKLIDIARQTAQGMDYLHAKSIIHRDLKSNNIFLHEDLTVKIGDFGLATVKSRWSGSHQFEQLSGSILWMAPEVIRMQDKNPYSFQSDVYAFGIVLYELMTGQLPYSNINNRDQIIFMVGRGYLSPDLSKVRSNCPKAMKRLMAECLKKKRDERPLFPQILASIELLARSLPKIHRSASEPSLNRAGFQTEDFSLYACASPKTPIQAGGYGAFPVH

CC(=O)Nc1cc(-c2cncc(-c3cc(C(=O)Nc4cnn(C(C)C)c4)ccc3C)n2)ccn1 [Example 87]
IC50 [1, 3]: ≤ 100 nM
IC50 [2, 4]: ≤ 100 nM
IC50 (Miapaca-2 cells): 1000 to 10000 nM

CC(=O)Nc1cc(-c2cc(-c3cc(NC(=O)c4ccnc(C(F)(F)F)c4)ccc3C)cc(OCCO)n2)ccn1 [Example 1, N-(3-(2′-acetamido-6-(2-hydroxyethoxy)-[2,4′-bipyridin]-4-yl)-4-methylphenyl)-2-(trifluoromethyl)isonicotinamide]
IC50 [1, 3]: ≤ 100 nM
IC50 [2, 4]: ≤ 100 nM
IC50 (Miapaca-2 cells): 100 to 500 nM

Cc1ccc(NC(=O)c2cn(C(C)C)nc2C)cc1-c1cc(-c2ccnc(NC(=O)C3CC3)c2)cnn1 [Example 373]
IC50 [1, 5]: ≤ 100 nM
IC50 [2, 6]: ≤ 100 nM

CC(=O)Nc1cc(-c2ccnc(-c3cc(NC(=O)c4ccnc(C(F)(F)F)c4)ccc3C)n2)ccn1 [Example 92]
IC50 [1, 3]: ≤ 100 nM
IC50 [2, 4]: ≤ 100 nM
IC50 (Miapaca-2 cells): 1000 to 10000 nM

CC(=O)Nc1cc(-c2cc(-c3cc(NC(=O)c4ccnc(C(F)(F)F)c4)ccc3C)ncn2)ccn1 [Example 84]
IC50 [1, 3]: ≤ 100 nM
IC50 [2, 4]: ≤ 100 nM
IC50 (Miapaca-2 cells): 1000 to 10000 nM

Cc1ccc(NC(=O)c2cnn(CC(F)(F)F)c2)cc1-c1cncc(-c2ccnc(C(N)=O)c2)c1 [Example 381]
IC50 [1, 5]: 100 to 500 nM
IC50 [2, 6]: ≤ 100 nM

CNC(=O)c1cc(-c2cncc(-c3cc(C(=O)Nc4cnn(C(C)C)c4)ccc3C)n2)ccn1 [Example 81]
IC50 [1, 3]: 100 to 500 nM
IC50 [2, 4]: 100 to 500 nM

Cc1ncc(NC(=O)c2ccnc(C(F)(F)F)c2)cc1-c1cccc(-c2ccnc(NC(=O)C3CC3)c2)c1 [Example 70]
IC50 [1, 3]: ≤ 100 nM
IC50 [2, 4]: ≤ 100 nM
IC50 (Miapaca-2 cells): 1000 to 10000 nM

CNC(=O)c1cc(-c2ccnc(-c3cc(NC(=O)c4ccnc(C(C)(C)F)c4)ccc3C)c2)ccn1 [Example 378]
IC50 [1, 5]: 100 to 500 nM
IC50 [2, 6]: ≤ 100 nM
IC50 (WM3928 cells): 100 to 500 nM

CC(=O)Nc1cc(-c2cc(-c3cc(NC(=O)c4ccnc(C(F)(F)F)c4)c(F)cc3C)ccn2)ccn1 [Example 2]
IC50 [1, 3]: ≤ 100 nM
IC50 [2, 4]: ≤ 100 nM
IC50 (Miapaca-2 cells): 1000 to 10000 nM

CC(=O)Nc1cc(-c2cc(-c3cc(NC(=O)c4cccc(C(F)(F)F)c4)cnc3C)ccn2)ccn1 [Example 37]
IC50 [1, 3]: ≤ 100 nM
IC50 [2, 4]: ≤ 100 nM
IC50 (Miapaca-2 cells): 1000 to 10000 nM

Cc1ccc(NC(=O)c2ccnc(C(C)(C)F)c2)cc1-c1cncc(-c2ccnc(C(N)=O)c2)c1 [Example 380]
IC50 [1, 5]: ≤ 100 nM
IC50 [2, 6]: ≤ 100 nM
IC50 (WM3928 cells): ≤ 100 nM

Cc1ccc(NC(=O)c2cc(C3CC3)n(C)n2)cc1-c1cc(-c2ccnc(NC(=O)C3CC3)c2)cnn1 [Example 377]
IC50 [1, 5]: ≤ 100 nM
IC50 [2, 6]: ≤ 100 nM
IC50 (WM3928 cells): ≤ 100 nM

CC(=O)Nc1cc(-c2cc(-c3cc(NC(=O)c4ccnc(C(F)(F)F)c4)ccc3F)cc(C)n2)ccn1 [Example 65]
IC50 [1, 3]: ≤ 100 nM
IC50 [2, 4]: ≤ 100 nM
IC50 (Miapaca-2 cells): 1000 to 10000 nM

CNC(=O)c1cc(-c2ccnc(-c3cc(NC(=O)c4ccnc(C(C)(C)C#N)c4)ccc3C)c2)ccn1 [Example 376]
IC50 [1, 5]: 100 to 500 nM
IC50 [2, 6]: ≤ 100 nM
IC50 (WM3928 cells): 100 to 500 nM

CC(=O)Nc1cc(-c2cc(-c3cc(NC(=O)c4cccc(C)c4)ccc3C)ccn2)ccn1 [Example 32]
IC50 [1, 3]: ≤ 100 nM
IC50 [2, 4]: ≤ 100 nM
IC50 (Miapaca-2 cells): 1000 to 10000 nM

Cc1cc(F)c(NC(=O)c2ccnc(C(F)(F)F)c2)cc1-c1ccnc(-c2ccnc(NC=O)c2)c1 [Example 35]
IC50 [1, 3]: ≤ 100 nM
IC50 [2, 4]: ≤ 100 nM
IC50 (Miapaca-2 cells): 1000 to 10000 nM

COC(=O)Nc1cc(-c2cc(-c3cc(NC(=O)c4ccnc(C(C)(C)F)c4)c(F)cc3C)cc(C)n2)ccn1 [Example 386]
IC50 [1, 5]: 100 to 500 nM
IC50 [2, 6]: ≤ 100 nM
IC50 (WM3928 cells): 100 to 500 nM

COCC(=O)Nc1cc(-c2cc(-c3cc(NC(=O)c4ccnc(C(C)(C)C#N)c4)ccc3C)ccn2)ccn1 [Example 61]
IC50 [1, 3]: ≤ 100 nM
IC50 [2, 4]: ≤ 100 nM
IC50 (Miapaca-2 cells): 1000 to 10000 nM

CC(=O)Nc1cc(-c2cc(-c3cc(NC(=O)c4ccnc(C(C)(C)C#N)c4)c(F)cc3C)ccn2)ccn1 [Example 75]
IC50 [1, 3]: ≤ 100 nM
IC50 [2, 4]: ≤ 100 nM
IC50 (Miapaca-2 cells): 1000 to 10000 nM

CNC(=O)c1cc(-c2cc(-c3cc(NC(=O)c4ccnc(C)c4)ccc3C)ccn2)ccn1 [Example 40]
IC50 [1, 3]: ≤ 100 nM
IC50 [2, 4]: ≤ 100 nM
IC50 (Miapaca-2 cells): 1000 to 10000 nM

CC(=O)Nc1cc(-c2cccc(-c3cc(NC(=O)c4ccnc(C(F)(F)F)c4)cnc3C)c2)ccn1 [Example 64]
IC50 [1, 3]: ≤ 100 nM
IC50 [2, 4]: ≤ 100 nM
IC50 (Miapaca-2 cells): 1000 to 10000 nM

CC(=O)Nc1cc(-c2cccc(-c3cc(NC(=O)c4ccnc(C(C)(C)C#N)c4)ccc3C)c2)ncn1 [Example 79]
IC50 [1, 3]: ≤ 100 nM
IC50 [2, 4]: ≤ 100 nM
IC50 (Miapaca-2 cells): 1000 to 10000 nM

CNC(=O)c1cc(-c2cnnc(-c3cc(NC(=O)CCC4(F)CC4)cnc3C)c2)ccn1 [Example 374]
IC50 [1, 5]: 1000 to 10000 nM
IC50 [2, 6]: 1000 to 10000 nM

Cc1ccc(NC(=O)c2ccnc(C(F)(F)F)c2)cc1-c1cncc(-c2ccnc(N)c2)n1 [Example 90]
IC50 [1, 3]: 100 to 500 nM
IC50 [2, 4]: ≤ 100 nM
IC50 (Miapaca-2 cells): 1000 to 10000 nM

CNC(=O)c1cc(-c2cncc(-c3cc(NC(=O)Cn4cc(C(C)C)nn4)ccc3C)c2)ncn1 [Example 383]
IC50 [1, 5]: 100 to 500 nM
IC50 [2, 6]: 100 to 500 nM

CNC(=O)c1cc(-c2cncc(-c3cc(NC(=O)c4ccnc(C(F)(F)F)c4)ccc3C)n2)ccn1 [Example 47]
IC50 [1, 3]: ≤ 100 nM
IC50 [2, 4]: ≤ 100 nM
IC50 (Miapaca-2 cells): 1000 to 10000 nM

Cc1ccc(NC(=O)c2ccnc(C(F)(F)F)c2)cc1-c1cccc(-c2ccnc(NC(=O)CC#N)c2)c1 [Example 62]
IC50 [1, 3]: ≤ 100 nM
IC50 [2, 4]: ≤ 100 nM
IC50 (Miapaca-2 cells): 1000 to 10000 nM

Cc1ccc(NC(=O)c2ccnc(C(F)(F)F)c2)cc1-c1ccnc(-c2ccnc(NC(=O)CC#N)c2)c1 [Example 39, N-(3-(2′-(2-cyanoacetamido)-[2,4′-bipyridin]-4-yl)-4-methylphenyl)-2-(trifluoromethyl)isonicotinamide]
IC50 [1, 3]: ≤ 100 nM
IC50 [2, 4]: ≤ 100 nM
IC50 (Miapaca-2 cells): 1000 to 10000 nM

CNC(=O)c1cc(-c2cncc(-c3cc(NC(=O)c4cnn(CC(F)(F)F)c4)ccc3C)c2)ncn1 [Example 382]
IC50 [1, 5]: 100 to 500 nM
IC50 [2, 6]: ≤ 100 nM

CC(=O)Nc1cc(-c2cc(-c3cc(NC(=O)c4ccnc(C(F)(F)F)c4)cnc3C)ccn2)ccn1 [Example 36]
IC50 [1, 3]: ≤ 100 nM
IC50 [2, 4]: ≤ 100 nM
IC50 (Miapaca-2 cells): 1000 to 10000 nM

CC(=O)Nc1cc(-c2cc(-c3cc(NC(=O)c4ccnc(C(F)(F)F)c4)ccc3C)nc(C)n2)ccn1 [Example 83]
IC50 [1, 3]: ≤ 100 nM
IC50 [2, 4]: ≤ 100 nM
IC50 (Miapaca-2 cells): 1000 to 10000 nM

Cc1ccc(NC(=O)c2ccnc(C(F)(F)F)c2)cc1-c1ccnc(-c2ccnc(NC=O)c2)c1 [Example 46]
IC50 [1, 3]: ≤ 100 nM
IC50 [2, 4]: ≤ 100 nM
IC50 (Miapaca-2 cells): 1000 to 10000 nM

CNC(=O)c1cc(-c2cccc(-c3cc(NC(=O)c4ccnc(C(F)(F)F)c4)cnc3C)c2)ccn1 [Example 73]
IC50 [1, 3]: 100 to 500 nM
IC50 [2, 4]: ≤ 100 nM
IC50 (Miapaca-2 cells): 1000 to 10000 nM

CC(=O)Nc1cc(-c2cc(-c3cc(NC(=O)c4ccnc(C)c4)ccc3C)ncn2)ccn1 [Example 59]
IC50 [1, 3]: ≤ 100 nM
IC50 [2, 4]: ≤ 100 nM
IC50 (Miapaca-2 cells): 1000 to 10000 nM

CNC(=O)c1cc(-c2cc(-c3cc(NC(=O)c4ccnc(C)c4)ccc3C)ncn2)ccn1 [Example 60]
IC50 [1, 3]: 100 to 500 nM
IC50 [2, 4]: ≤ 100 nM
IC50 (Miapaca-2 cells): 1000 to 10000 nM

Cc1cc(F)c(NC(=O)c2ccnc(C(C)(C)C#N)c2)cc1-c1ccnc(-c2ccnc(NC(=O)C3CC3)c2)c1 [Example 76]
IC50 [1, 3]: ≤ 100 nM
IC50 [2, 4]: ≤ 100 nM
IC50 (Miapaca-2 cells): 1000 to 10000 nM

COCC(=O)Nc1cc(-c2cccc(-c3cc(NC(=O)c4ccnc(C(F)(F)F)c4)ccc3C)c2)ccn1 [Example 57]
IC50 [1, 3]: ≤ 100 nM
IC50 [2, 4]: ≤ 100 nM
IC50 (Miapaca-2 cells): 1000 to 10000 nM

Cc1cc(-c2cc(-c3cc(NC(=O)c4ccnc(C(C)(C)C#N)c4)ccc3C)ccn2)ccn1 [Example 49]
IC50 [1, 3]: 100 to 500 nM
IC50 [2, 4]: ≤ 100 nM
IC50 (Miapaca-2 cells): 1000 to 10000 nM
